Source: PubChem BioAssay AID1421 (Emory University Molecular Libraries Screening Center, 2008)
Activity calls are given as the source filed them. How the calls were made is not given here.

Target: Prostaglandin E2 receptor EP2 subtype (Homo sapiens) (UniProt P43116)
Assay: EP2 receptor modulators, dose response, cell-based, human EP2, PGE2 EC50 shift (AID 1421)
Conditions: EP2-expressing cells, PGE2 EC50 shift by compound

Sequence of Prostaglandin E2 receptor EP2 subtype (Homo sapiens) (P43116 whole entry, looked up): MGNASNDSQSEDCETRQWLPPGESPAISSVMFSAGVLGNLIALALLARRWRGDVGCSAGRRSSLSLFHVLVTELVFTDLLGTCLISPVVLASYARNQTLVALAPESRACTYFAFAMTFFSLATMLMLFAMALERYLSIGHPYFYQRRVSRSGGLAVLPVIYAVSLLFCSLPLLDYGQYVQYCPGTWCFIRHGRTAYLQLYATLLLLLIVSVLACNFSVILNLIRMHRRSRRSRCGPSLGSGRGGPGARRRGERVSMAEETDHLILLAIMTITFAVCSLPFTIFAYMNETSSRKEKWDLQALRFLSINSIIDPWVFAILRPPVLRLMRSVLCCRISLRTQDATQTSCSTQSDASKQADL

outcome | SMILES
active | FC(F)(F)c1cc(-c2ccccc2)nc2nc(N3CCOCC3)sc12
active | Cc1ccc(C(=O)Nc2ccccc2N2CCCCC2)cc1[N+](=O)[O-]
active | CC1=CC(C)(C)N(C(=O)c2ccccc2)c2ccccc21
active | CCC1COC(c2cccn2Cc2ccc(Cl)cc2)=N1 (stereo not given)
active | CCCSc1ncnc2c1oc1ccccc12
active | CC(C)Sc1cc(N2CCOCC2)nc(-c2ccc(Cl)cc2)n1
active | CCn1c2c(c3cc(OCC(C)C)ccc31)CCCC2=O

Same assay, conditions: EP2-expressing cells, PGE2 EC50 shift by compound; measured here: PGE2 EC50 at 6.7 uM compound

PGE2 EC50 with compound [nM] | SMILES
1.11 | OCCCNc1nc(-c2ccc(Cl)cc2)nnc1-c1ccc(Br)cc1
1.01 | CCCOP(=O)(OCCC)c1nc(-c2ccccc2)oc1NCc1ccccc1
1.01 | O=c1n(Cc2ccccc2F)c2ccccc2n1Cc1ccccc1F
2.78 | COc1ccc(-c2c3c([nH]c(=S)c2C#N)CCC3)cc1
1.4 | O=C1C2C3c4ccccc4C(c4ccccc43)C2c2nc3ccccc3n21 (stereo not given)
2.69 | CCOC(=O)COc1cc(Br)c(/C=N/Nc2ccccc2)cc1OC
0.87 | CC(CC(=O)O)(CC(=O)O)C(=O)O
1.18 | O=C(NCCC1=CCCCC1)c1cccc2c1C(=O)N(C1CCCCC1)C2
2.54 | COc1cc(NC(=S)NC(=O)c2cc(C)cc(C)c2)ccc1NC(=O)c1cccs1
1.34 | S=c1[nH]nc(-c2ccc(Br)o2)n1Cc1ccccc1
0.79 | O=c1cc2c(nn1Cc1c(Cl)cccc1Cl)-c1ccccc1CC2
0.95 | CCOC(=O)c1c(NC(=O)CSc2nnc(C)s2)sc2c1CCC(C)C2 (stereo not given)
0.59 | C=CCc1cc(C=O)cc(OC)c1OCc1c(Cl)cccc1Cl
1.07 | CCCC(=O)Nc1ccccc1Sc1ncnc2scc(-c3ccccc3)c12
0.81 | Cc1ccc(N=Nc2c(N)[nH]n3c(=O)c4c(nc23)CCCC4)cc1
1.25 | CCOC(=O)c1c(C2CC2)csc1NC(=O)CSCc1c(C)noc1C
1.44 | CCn1nnnc1SCC(=O)Nc1cccc(C)n1
2.62 | COc1cc2cc(Br)cc(Br)c2nc1C
2.86 | N#Cc1c(-c2ccco2)nc(SCc2ccc(F)cc2)[nH]c1=O
1.42 | OCCCNc1nc(-c2ccc(Br)cc2)nnc1-c1ccc(Cl)cc1
2.54 | c1ccc2c(c1)OCC(c1csc3ncnc(N4CCCCC4)c13)O2 (stereo not given)
0.91 | O=C(COc1ccccc1)Nc1cc(C(F)(F)F)ccc1N1CCCC1
1.68 | FC(F)(F)c1cc(-c2ccccc2)nc2nc(N3CCOCC3)sc12
1.37 | CCOC(=O)c1sc(NC(=O)CN2C(=O)c3cccc4cccc(c34)C2=O)nc1C
1.31 | CCc1cc(-c2[nH]ncc2-c2ccc3c(c2)OCO3)c(O)cc1O
0.97 | CCOC(=O)C1=C(C)N(C)C(C)=C(C(=O)OCC)C1c1ccccc1

PGE2 EC50 with compound [nM] | SMILES
1.15 | O=S(Cc1cc(Sc2ccccc2)nc(-c2ccccc2)n1)c1ccccc1 (stereo not given)
2.55 | Cc1scc(-c2n[nH]c(=S)n2Cc2ccccc2)c1C
2.68 | O=C(/C(=C/O)N=Nc1ccccc1Cl)c1ccccc1
0.66 | Cc1ccc(C(=O)Nc2ccccc2N2CCCCC2)cc1[N+](=O)[O-]
1.19 | O=C(/C(=C/O)N=Nc1ccccc1)c1cccs1
0.81 | C=CCOc1c(Br)cc(/C=N/n2c(CC)n[nH]c2=S)cc1Br
0.8 | CC1=CC(C)(C)N(C(=O)c2ccccc2)c2ccccc21
1.05 | COc1ccc(-c2nc3ccccc3n2Cc2ccccc2)cc1
2.59 | Cc1cc2c3c(c1)C1(SCC(=O)N1c1ccc(F)cc1)C(=O)N3C(C)(C)CC2C (stereo not given)
1 | CCOC(=O)c1c(NC(=O)c2ccncc2)sc(C)c1C
1.27 | CCC1COC(c2cccn2Cc2ccc(Cl)cc2)=N1 (stereo not given)
2.67 | CCOc1ccc(NC(=O)CSc2ncnc3c2sc2ccccc23)cc1
0.69 | CCCSc1ncnc2c1oc1ccccc12
1.21 | Cc1nc(N(C)C)c2sc(=S)n(Cc3ccccc3)c2n1
2.21 | O=c1nc(-c2ccccc2)cc(-c2ccccc2)[nH]1
1.6 | CSc1nc(Sc2ccccc2)c2ccccc2n1
2.64 | CCc1ccc2nc(-c3cccc(C)c3)nc(SCC(=O)NCC3CCCO3)c2c1 (stereo not given)
1.5 | CCOC(=O)c1c(N)sc2c1CCC(CC)C2 (stereo not given)
1.25 | CC(=O)N1N=C2/C(=C/c3ccccc3)CCCC2C1c1ccccc1 (stereo not given)
0.97 | Cc1ccc(C)n1-n1cnc2scc(-c3cccs3)c2c1=O
2.78 | Cc1ccc(-n2c(SCC(N)=O)nc3c(c2=O)C2(CCCC2)Cc2ccccc2-3)cc1
1.48 | CCOC(=O)CN(C(=O)CSc1nnc(Cc2ccccc2)n1-c1ccc(C)cc1)c1ccccc1
1.03 | C=C(C)COc1ccc2c(c1)CC[C@@H]1[C@H]3C/C(=N/O)C(=O)[C@]3(C)CC[C@@H]21
0.9 | CC(C)c1ccc2c(c1)CCC1C(C)(C(N)=O)CCCC21C (stereo not given)
0.53 | CC1CN(c2nc3ccccc3cc2-c2ccccc2)CC(C)O1 (stereo not given)
1.22 | Cc1cccnc1N(C(=O)Nc1cccc(Cl)c1)C1=NCC(C)(C)S1

PGE2 EC50 with compound [nM] | SMILES
1.42 | O=c1c2ccccc2c(-c2ccccc2)nn1-c1ccc(Cl)c(Cl)c1
1.35 | CC(=O)c1ccc2c(c1)c1ccccc1n2CC(C)C
2.93 | Cc1nc(SCCC(=O)O)c2ccccc2n1
1.06 | CSc1ccccc1NC(=O)COc1ccc(Cl)cc1C
2.6 | Cc1sc(NC(=O)c2cccs2)c(C(=O)OC(C)C)c1C
0.86 | CC(/C=C1\SC(=S)N(C(C(=O)O)C(C)C)C1=O)=C\c1ccccc1 (stereo not given)
1.44 | O=C(O)c1ccc(-c2ccccc2Cl)o1
1.14 | N/C(CSc1nc(-c2ccccc2)c(-c2ccccc2)o1)=N\O
0.7 | CCNc1nc(NCC)nc(SCCOc2ccc(C)cc2)n1
2.8 | O=c1c2ccccc2c(-c2ccccc2)nn1Cc1ccccc1
1.04 | CCOC(=O)c1cnn(-c2nc(-c3ccc(F)cc3)cs2)c1C(F)(F)F
1.02 | CC(C)Sc1cc(N2CCOCC2)nc(-c2ccc(Cl)cc2)n1
0.58 | Oc1c(Cl)cc(Cl)cc1Sc1cc(Cl)cc(Cl)c1O
1.34 | CCOC(=O)c1c(C=O)c(C)n(Cc2ccccc2Cl)c1C
0.32 | CCC(=O)Oc1ccc(C(CC)C(CC)c2ccc(OC(=O)CC)cc2)cc1 (stereo not given)
1.64 | O=S(=O)(c1cccs1)N1CN(Cc2cccs2)c2nc3ccccc3nc21
2.61 | CCc1c(C)nc2ccc(Br)cc2c1SCCC#N
2.66 | C#CCn1c(S(=O)(=O)Cc2ccccc2Cl)nc(-c2ccccc2)c1-c1ccccc1
2.51 | Cc1ccc(C(C)C)c(OCc2ccc(-c3nnco3)cc2)c1
2.64 | CCN(CC)CCN1C(=O)c2cccc3cc(N)cc(c23)C1=O
1.09 | CCn1c2c(c3cc(OCC(C)C)ccc31)CCCC2=O
1.35 | Oc1ccc2ccccc2c1Cc1c(O)ccc2ccccc12
1.07 | C=CCn1c(SCC(N)=O)nc(C)cc1=O
1.28 | CCN(Cc1ccccc1)C(c1cc2cc(C)cc(C)c2[nH]c1=O)c1nnnn1CCOC (stereo not given)
0.99 | CC1(C)OC(c2ccccc2)=C/C(=C/C=Nc2ccccc2)O1
2.52 | CC(=O)c1ccc(-n2c(C)ccc2-c2ccccc2)cc1
